Experimental data from patent publication US4774252A, “Benzisoselenazolonyl derivatives and processes for the treatment of rheumatic disease” (priority 1985, dated 1988).

Tests used:
[1] = test system: Cobra-Venom-Factor (CVF)-oedema; assay: CVF-oedema test (inflammation-inhibiting activity); assay type: in vivo; settings: po, read-out: ED50 values in CVF-oedema
[2] = test system: CVF-oedema, carragenine-test; settings: S. Leyck et al., Agents and Actions 13, 437-438 (1983); cited from earlier work

For `CC(C)C(C(=O)O)n1[se]c2ccccc2c1=O` (racemic) [DL-2-(1,2-Benzisoselenazole-3(2H)-one-2-yl)-3-methylbutyric acid], which ED50 [1] is on record?
Its ED50 is 5 mg/kg.

Which “inhibiting effect in CVF-oedema-test as compared with carragenine-test” value [2] does the source give for `c1ccc([C@H]2CN3CCSC3=N2)cc1` [levamisole] here?
The value was “more significant inhibiting effect in CVF-oedema-test as in carragenine-test”.

With `O=C1CCN(c2ccccc2)N1` [phenidone] as the molecule, how does the “inhibiting effect in CVF-oedema-test as compared with carragenine-test” value [2] read?
The value was “more significant inhibiting effect in CVF-oedema-test as in carragenine-test”.
